Reference: ChEMBL document CHEMBL1127202, “Endothelin receptor ligands. replacement net approach to SAR determination of potent hexapeptides” (Bioorg Med Chem Lett, 1993)
Residues, ends and D or L forms follow the SMILES beside them.

Columns and labels:
Endothelin-1 receptor [1] = target: T1, Endothelin-1 receptor (Mus musculus, UniProt Q61614); test: Inhibition of [125I]ET1 binding to Endothelin A receptor of murine 3T3 cells; format: cell-based, NIH3T3
T1 sequence (Q61614 whole entry): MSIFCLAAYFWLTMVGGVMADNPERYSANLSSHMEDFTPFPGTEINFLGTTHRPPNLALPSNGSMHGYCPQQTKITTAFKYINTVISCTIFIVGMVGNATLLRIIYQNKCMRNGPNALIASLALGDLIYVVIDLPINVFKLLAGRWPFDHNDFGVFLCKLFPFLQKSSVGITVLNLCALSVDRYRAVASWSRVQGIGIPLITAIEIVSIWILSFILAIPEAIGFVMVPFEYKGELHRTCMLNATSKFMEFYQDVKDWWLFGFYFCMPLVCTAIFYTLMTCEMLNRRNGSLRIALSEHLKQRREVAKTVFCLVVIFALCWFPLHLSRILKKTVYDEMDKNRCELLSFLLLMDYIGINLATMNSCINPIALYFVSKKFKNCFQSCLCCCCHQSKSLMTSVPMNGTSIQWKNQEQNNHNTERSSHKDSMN

Endothelin-1 receptor [2] = target: T2, Endothelin-1 receptor (Homo sapiens, UniProt P25101); test: The inhibitory constant was evaluated against Endothelin A receptor
T2 sequence (P25101 whole entry): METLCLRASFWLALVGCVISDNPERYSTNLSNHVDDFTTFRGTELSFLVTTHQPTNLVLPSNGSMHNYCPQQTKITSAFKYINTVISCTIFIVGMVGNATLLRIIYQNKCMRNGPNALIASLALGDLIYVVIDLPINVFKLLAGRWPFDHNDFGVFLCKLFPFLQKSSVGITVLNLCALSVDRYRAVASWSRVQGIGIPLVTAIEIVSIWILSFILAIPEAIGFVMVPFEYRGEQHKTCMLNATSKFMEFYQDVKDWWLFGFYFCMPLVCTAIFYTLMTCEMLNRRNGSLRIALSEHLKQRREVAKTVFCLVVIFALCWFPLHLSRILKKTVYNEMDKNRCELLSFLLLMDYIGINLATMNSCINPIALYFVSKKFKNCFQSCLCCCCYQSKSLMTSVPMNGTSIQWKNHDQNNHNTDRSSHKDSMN

Endothelin-1 receptor [3] = target: T1, Endothelin-1 receptor; test: The compound was tested for the binding affinity against eEndothelin A receptor in murine 3T3 cells using [125I]ET1 as a radioligand; format: cell-based, NIH3T3

| Structure (SMILES) | IC50 (Endothelin-1 receptor [1]) | further results |
| --- | --- | --- |
| CC[C@H](C)[C@H](NC(=O)[C@H](CC(=O)O)NC(=O)[C@H](Cc1c[nH]c2ccccc12)NC(=O)[C@@H](Cc1ccccc1)NC(C)=O)C(=O)N[C@H](C(=O)N[C@@H](Cc1c[nH]c2ccccc12)C(=O)O)[C@@H](C)CC | 79 nM | – |
| CC[C@H](C)[C@H](NC(=O)[C@H](CC(=O)O)NC(=O)[C@H](Cc1ccc(O)cc1)NC(=O)[C@@H](Cc1ccccc1)NC(C)=O)C(=O)N[C@H](C(=O)N[C@@H](Cc1c[nH]c2ccccc12)C(=O)O)[C@@H](C)CC | 77 nM | – |
| CC[C@H](C)[C@H](NC(=O)[C@H](CC(=O)O)NC(=O)[C@H](CCCN)NC(=O)[C@@H](Cc1ccc(O)cc1)NC(C)=O)C(=O)N[C@H](C(=O)N[C@@H](Cc1c[nH]c2ccccc12)C(=O)O)[C@@H](C)CC | 26 nM | IC50 (Endothelin-1 receptor [2]): 400 nM |
| CC[C@H](C)[C@H](NC(=O)[C@H](CC(=O)O)NC(=O)CN(Cc1ccccc1)C(=O)[C@@H](Cc1ccccc1)NC(C)=O)C(=O)N[C@H](C(=O)N[C@@H](Cc1c[nH]c2ccccc12)C(=O)O)[C@@H](C)CC | 12 nM | IC50 (Endothelin-1 receptor [2]): 30 nM |
| CC[C@H](C)[C@H](NC(=O)[C@H](CC(=O)O)NC(=O)[C@H](CCCN)NC(=O)[C@@H](Cc1c[nH]c2ccccc12)NC(C)=O)C(=O)N[C@H](C(=O)N[C@@H](Cc1c[nH]c2ccccc12)C(=O)O)[C@@H](C)CC | 15 nM | – |
| CC[C@H](C)[C@H](NC(=O)[C@H](CC(=O)O)NC(=O)[C@H](CC(N)=O)NC(=O)[C@@H](Cc1ccccc1)NC(C)=O)C(=O)N[C@H](C(=O)N[C@@H](Cc1c[nH]c2ccccc12)C(=O)O)[C@@H](C)CC | 75 nM | – |
| CC[C@H](C)[C@@H](NC(=O)[C@@H](CC(=O)O)NC(=O)[C@H]1CCCN1C(=O)[C@@H](Cc1ccccc1)NC(C)=O)C(=O)N[C@@H](C(=O)N[C@H](Cc1c[nH]c2ccccc12)C(=O)O)[C@@H](C)CC | – | IC50 (Endothelin-1 receptor [2]): 15 nM; IC50 (Endothelin-1 receptor [1]; nih3t3): 45 nM |
| CC[C@H](C)[C@H](NC(=O)[C@H](CC(=O)O)NC(=O)[C@H](CCc1ccccc1)NC(=O)[C@@H](Cc1ccccc1)NC(C)=O)C(=O)N[C@H](C(=O)N[C@@H](Cc1c[nH]c2ccccc12)C(=O)O)[C@@H](C)CC | 70 nM | – |
| CC[C@H](C)[C@H](NC(=O)[C@H](CCc1ccccc1)NC(=O)[C@H](CC(=O)O)NC(=O)[C@H](CCCN)NC(=O)[C@@H](Cc1ccccc1)NC(C)=O)C(=O)N[C@@H](Cc1c[nH]c2ccccc12)C(=O)O | 114 nM | – |
| CC[C@H](C)[C@H](NC(=O)[C@H](CC(=O)O)NC(=O)[C@H](C)NC(=O)[C@@H](Cc1ccccc1)NC(C)=O)C(=O)N[C@H](C(=O)N[C@@H](Cc1c[nH]c2ccccc12)C(=O)O)[C@@H](C)CC (HELM PEPTIDE1{[ac].[dF].A.D.I.I.W}$$$$V2.0) | 57 nM | – |
| CC[C@H](C)[C@H](NC(=O)[C@H](CC(=O)O)NC(=O)[C@H](Cc1ccccc1)NC(=O)[C@@H](Cc1ccccc1)NC(C)=O)C(=O)N[C@H](C(=O)N[C@@H](Cc1c[nH]c2ccccc12)C(=O)O)[C@@H](C)CC (HELM PEPTIDE1{[ac].[dF].F.D.I.I.W}$$$$V2.0) | 270 nM | – |
| CC[C@H](C)[C@H](NC(=O)[C@H](CC(=O)O)NC(=O)[C@H](CCCN)NC(=O)[C@@H](Cc1ccccc1)NC(C)=O)C(=O)N[C@H](C(=O)N[C@@H](Cc1c[nH]c2ccccc12)C(=O)O)[C@@H](C)CC (HELM PEPTIDE1{[ac].[dF].[Orn].D.I.I.W}$$$$V2.0) | – | IC50 (Endothelin-1 receptor [3]): 230 nM |
| CC[C@H](C)[C@H](NC(=O)[C@H](CC(=O)O)NC(=O)[C@@H](Cc1ccccc1)NC(=O)[C@@H](Cc1ccccc1)NC(C)=O)C(=O)N[C@H](C(=O)N[C@@H](Cc1c[nH]c2ccccc12)C(=O)O)[C@@H](C)CC (HELM PEPTIDE1{[ac].[dF].[dF].D.I.I.W}$$$$V2.0) | 98 nM | – |
